In the test the target is T1, Type II 5α-reductase from human prostate (Homo sapiens, UniProt P31213).
T1 construct: Human prostate tissue from prostate surgeries was obtained immediately after surgery, frozen on dry ice; from tissue; host or cells: human prostate tissue from surgery; homogenate, 100,000 x g pellet resuspended
T1 sequence (P31213 1-254): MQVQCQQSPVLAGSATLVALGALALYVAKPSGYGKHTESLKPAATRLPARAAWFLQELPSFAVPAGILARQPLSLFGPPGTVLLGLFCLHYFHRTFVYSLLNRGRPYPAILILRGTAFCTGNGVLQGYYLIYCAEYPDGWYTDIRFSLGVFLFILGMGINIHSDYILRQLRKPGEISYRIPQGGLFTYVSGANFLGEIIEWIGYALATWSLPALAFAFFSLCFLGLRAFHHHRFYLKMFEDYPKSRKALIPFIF
In words: Human Type II steroid 5α-reductase assay (conversion of [3H]-testosterone to DHT). Conditions: human prostate enzyme preparation, 50 nM [3H]-testosterone, pH 5.5, 30 min at 25°, compared to control reaction mixtures; read-out: 50% inhibitory concentration. The test is classed as biochemical. As to the method: Methodology of Human Type II Steroid 5α-Reductase Assays
Preparation of Type II 5α-Reductase from Human Prostate:
Human prostate tissue from prostate surgeries was obtained immediately after surgery, frozen on dry ice and stored at -80° C. The tissue was frozen with liquid nitrogen and pulverized to powder. The powder was homogenized in ice-cold buffer (20 mM sodium phosphate, pH 6.5) using a Brinkmann Polvtron (Westbury, N.Y.) with a PTA 10-S probe and a setting of 7. The homogenization procedure consisted of four 15 second pulses. Connective tissue was cleared from the probe with forceps between pulses. […]
This enzyme assay is based on the conversion of [^3 H]-testosterone to [^3 H]-5α-dihydrotestosterone (DHT) and other 5α-reduced metabolites. […] Essentially no androsterone was detected. […]
The [^3 H]-testosterone substrate and its metabolites were separated by chromatography using a C-18 reversed phase column (Beckman Ultrasphere 5 μm spherical 80A pore, part no. 235329, 4.6 mm i.d..div.25 mm length) with an isocratic mobile phase (46 water: 46 methanol: 8 tetrahydrofuran by volume). […] A 400 μl aliquot was injected onto the column and radioactivity was determined using a Beckman 171 in-line flow radioisotope detector in conjunction with Rainin Dynamax™ software and a Macintosh computer. […]

Structures are written as SMILES.

With `C[C@]12CCC(C(=O)O)=CC1=CCc1cc(Cl)ccc12` [Example 1, (-)-2-Chloro-4b-methyl-4b,5,6,10-tetrahydrophenanthrene-7-carboxylic acid], the IC50 stood at 150 nM. `C[C@]12CCC(c3nnn[nH]3)=CC1=CCc1cc(Cl)ccc12` [Example 2, (-)-2-Chloro-4b-methyl-4b,5,6,10-tetrahydrophenanthrene-7-(1-tetrazole)]: the IC50 is 600 nM.

The values above are taken from patent US5430157A, “Reduced phenanthrenes” (Eli Lilly and Company, priority 1993, dated 1995).
